The source of these data is ChEMBL document CHEMBL1125168, “Antihypertensive activity of redox derivatives of tryptophan” (J Med Chem, 1990).

This data set can be described thus: Second-order rate of Ferricyanide -mediated oxidation using spectrophotometric method. The format is ADME.
Turning to `CCCCCCCCOC(=O)C(Cc1c[nH]c2ccccc12)NC(=O)c1ccc[n+](C)c1` (centres undefined), the Ko stood at 7.61 M⁻¹ s⁻¹. With `COC(=O)C(Cc1c[nH]c2ccccc12)NC(=O)c1ccc[n+](C)c1` (centres undefined) the figure was 13.8 M⁻¹ s⁻¹; with `CCOC(=O)C(Cc1c[nH]c2ccccc12)NC(=O)c1ccc[n+](C)c1` (centres undefined), 13.5 M⁻¹ s⁻¹; with `C[n+]1cccc(C(=O)NC(Cc2c[nH]c3ccccc23)C(=O)OC2CCCCC2)c1` (centres undefined), 12.2 M⁻¹ s⁻¹.
